For data set [1] the following is noted: cited from earlier work.
Data set [2] is described as follows: Reaction at the tail vein injection site in xenograft mice (Example 7). In kind it is in vivo, athymic nude mice. The protocol:
The experiment was designed as follows. Group 1 (control) received no treatment. Group 2 (control) received free Doxorubicin (5 μg/gm of mouse body weight) intratumorally. This control was included to determine the effect of free Doxorubicin on tumor cells and to assess toxic side-effects. Group 3 (control) was the same as group 2, except that the Doxorubicin was administered intravenously. Group 4 (control) received the anti-O antigen/anti-EGFR BsAb and free Doxorubicin intravenously to show the effect of BsAb in the absence of minicells. […] Groups 7 and 8 received EGFR-targeted ^EGFRMinicellsDOX intravenously and intratumorally, respectively, to determine if receptor-targeted, drug-packaged minicells could effect tumor stabilization. […] Minicells were administered at a dose of 10^8 and all treatments were given on days 17, 24, 27 and 56 post-xenograft establishment. All measurements were performed by an investigator who was blinded to the treatments administered. Statistical analysis was performed by analysis of variance (ANOVA) and P<0.05 was considered to be statistically significant.

Data set [3] concerns MDA-MB-468 human breast adenocarcinoma cells. As to the kind of experiment: Colorimetric cytotoxicity (MTS) assay, minicell-mediated drug delivery. In kind it is cell-based. As to conditions: MDA-MB-468 cells, within 6 days after treatment. The procedure:
A colorimetric cytotoxicity assay (Promega; CellTiter 96 Aqueous One™) was used. […] MDA-MB 468 cells were seeded at 5×10^6 cells in T75 flasks and incubated for 48 hrs to obtain ˜1×10^7 cells/flask. The media was changed and cells were treated with 10^9 non-targetedminicellsDOX or ^EGFRMinicellsDOX. Free Doxorubicin (50 ng/ml) was also included as a positive control. The cells were incubated for 24 hrs, washed thoroughly with 3 changes of PBS and trypsinized. Viable cells were counted in a haemocytometer using the trypan blue exclusion method. 1×10^4 cells/ml per well were aliqouted into 24-well plates (6 wells per treatment) and incubated for 3, 4, 5, and 6 days with media changes everyday. MTS assay was performed at each time point according to the manufacturers instructions. Briefly, 100 μL of MTS reagent was added to each well and color development was monitored over 2.5 hrs to 4 hrs. 100 μL from each well was transferred to a 96-well plate and the absorbance was read at 490 nm.

For data set [4], the system named is human breast cancer xenografts. As to the kind of experiment: Human breast cancer xenograft in nude mice, Paclitaxel minicells (Example 8). In kind it is in vivo. As to conditions: 1×10^8 minicells or 400 μg free Paclitaxel, intravenously or intratumorally, days 15, 21, 26, 29 and 33. (A xenograft is tissue or cells of one species grown in another, often human tumour cells in immunodeficient mice.)
Description: Human breast adenocarcinoma cells (MDA-MB-468, ATCC; human mammary epithelial cells; non-phagocytic) were grown in tissue culture to full confluency in T-75 flasks in RPMI 1640 medium supplemented with 5% Bovine Calf Serum (GIBCO-BRL Life Technologies, Invitrogen Corporation, Carlsbad, Calif., USA) and glutamine (Invitrogen) in a humidified atmosphere of 95% air and 5% CO2 at 37° C. 1×10^6 cells in 50 uL serum-free media together with 50 uL growth factor reduced matrigel (BD Biosciences, Franklin Lakes, N.J., USA) were injected subcutaneously between the shoulder blades of each mouse using a 23-gauge needle. The tumors were measured twice a week using an electronic digital caliper (Mitutoyo, Japan, precision to 0.001) and mean tumor volume was calculated using the formula, length (mm)×width^2 (mm)×0.5=volume (mm^3). 16 days post-implantation, the tumors reached volumes between 50 mm^3 and 80 mm^3, and mice were randomized to seven different groups of 11 per group.
The experiment shown in example 7 was repeated using ^EGFRminicellsPaclitaxel as the experimental treatment. […]

SMILES strings stand for the structures.

Consider `CC[C@]1(O)C[C@@H]2CN(CCc3c([nH]c4ccccc34)[C@@](C(=O)OC)(c3cc4c(cc3OC)N(C)[C@H]3[C@@](O)(C(=O)OC)[C@H](OC(C)=O)[C@]5(CC)C=CCN6CC[C@]43[C@@H]65)C2)C1` [Vinblastine], for which, in data set [1], the solubility in water result was “low solubility in water”.
For `COc1cccc2c1C(=O)c1c(O)c3c(c(O)c1C2=O)C[C@@](O)(C(=O)CO)C[C@@H]3O[C@H]1C[C@H](N)[C@H](O)[C@H](C)O1` [free Doxorubicin, Doxorubicin], the “reaction at the site of injection” value in data set [2] is “severe reaction at the site of the injection”. The cell viability entry in data set [3] is listed as “about 30%”.
With `CC(=O)O[C@H]1C(=O)[C@@]2(C)[C@H]([C@H](OC(=O)c3ccccc3)[C@]3(O)C[C@H](OC(=O)[C@H](O)[C@@H](NC(=O)c4ccccc4)c4ccccc4)C(C)=C1C3(C)C)[C@]1(OC(C)=O)CO[C@@H]1C[C@@H]2O` [free paclitaxel, Paclitaxel], the tumor stabilization/regression entry in data set [4] is on record as “negligible effect on tumor growth”.

Values taken from patent publication US10799461B2 (priority 2004, dated 2020).
